{"source": "ChEMBL document CHEMBL1201862", "about": "“PubChem BioAssay data set” (2004)", "assay_in_all_cases": "NCI tumour cell line growth inhibition, 48 h", "key": {"SN12C": {"system": "SN12C"}, "A498": {"system": "A498"}, "SF-268": {"system": "SF-268"}, "OVCAR-8": {"system": "OVCAR-8"}, "M14": {"system": "M14"}, "U-251": {"system": "U-251"}, "786-0": {"system": "786-0"}, "UACC-62": {"system": "UACC-62"}, "K562": {"system": "K562"}, "HL-60": {"system": "HL-60"}, "SW-620": {"system": "SW-620"}, "NCI-H226": {"system": "NCI-H226"}, "KM12": {"system": "KM12"}, "TK-10": {"system": "TK-10"}, "UO-31": {"system": "UO-31"}, "DMS-273": {"system": "DMS-273"}, "HOP-62": {"system": "HOP-62"}, "SF-295": {"system": "SF-295"}, "M19-MEL": {"system": "M19-MEL"}, "HOP-92": {"system": "HOP-92"}, "NCI-H522": {"system": "NCI-H522"}, "SK-MEL-28": {"system": "SK-MEL-28"}, "OVCAR-5": {"system": "OVCAR-5"}, "NCI-H23": {"system": "NCI-H23"}, "SK-MEL-2": {"system": "SK-MEL-2"}, "RXF 393": {"system": "RXF 393"}, "HOP-18": {"system": "HOP-18"}, "HCC 2998": {"system": "HCC 2998"}, "A549": {"system": "A549"}, "SNB-19": {"system": "SNB-19"}, "HCT-15": {"system": "HCT-15"}, "MOLT-4": {"system": "MOLT-4"}, "OVCAR-3": {"system": "OVCAR-3"}, "IGROV-1": {"system": "IGROV-1"}, "LOX IMVI": {"system": "LOX IMVI"}, "RPMI-8226": {"system": "RPMI-8226"}, "OVCAR-4": {"system": "OVCAR-4"}, "UACC-257": {"system": "UACC-257"}, "DMS-114": {"system": "DMS-114"}, "LXFL 529": {"system": "LXFL 529"}, "HCT-116": {"system": "HCT-116"}, "SNB-78": {"system": "SNB-78"}, "Malme-3M": {"system": "Malme-3M"}, "SF-539": {"system": "SF-539"}, "KM-20L2": {"system": "KM-20L2"}, "SK-OV-3": {"system": "SK-OV-3"}, "SNB-75": {"system": "SNB-75"}, "CAKI-1": {"system": "CAKI-1"}, "CCRF-CEM": {"system": "CCRF-CEM"}, "SR": {"system": "SR"}, "HT-29": {"system": "HT-29"}, "COLO 205": {"system": "COLO 205"}, "EKVX": {"system": "EKVX"}, "ACHN": {"system": "ACHN"}, "NCI-H460": {"system": "NCI-H460"}, "RXF 631": {"system": "RXF 631"}, "SK-MEL-5": {"system": "SK-MEL-5"}}, "note": "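Compound exposure: 48 hours, 5 concentrations, 96-well plates. GI50 is the concentration that inhibits growth by half.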 Calls of active or inactive are those of the source. Rule as the data show it: active = GI50 up to about 1.1 µM and inactive = higher."}
{"smiles": "COC(=O)C(CC(=O)Nc1ccc(Cl)c(Cl)c1)C(=O)C(=O)Nc1ccc(Cl)c(Cl)c1", "note": "(configuration not stated)", "values": [{"measurement": "GI50", "setting": "SN12C", "value": "> 100 µM (inactive)"}, {"measurement": "GI50", "setting": "A498", "value": "> 100 µM (inactive)"}, {"measurement": "GI50", "setting": "SF-268", "value": "> 100 µM (inactive)"}, {"measurement": "GI50", "setting": "OVCAR-8", "value": "> 100 µM (inactive)"}, {"measurement": "GI50", "setting": "M14", "value": "> 100 µM (inactive)"}, {"measurement": "GI50", "setting": "U-251", "value": "> 100 µM (inactive)"}, {"measurement": "GI50", "setting": "786-0", "value": "> 100 µM (inactive)"}, {"measurement": "GI50", "setting": "UACC-62", "value": "> 100 µM (inactive)"}, {"measurement": "GI50", "setting": "K562", "value": "> 100 µM (inactive)"}, {"measurement": "GI50", "setting": "HL-60", "value": "> 100 µM (inactive)"}, {"measurement": "GI50", "setting": "SW-620", "value": "> 100 µM (inactive)"}, {"measurement": "GI50", "setting": "NCI-H226", "value": "> 100 µM (inactive)"}, {"measurement": "GI50", "setting": "KM12", "value": "> 100 µM (inactive)"}, {"measurement": "GI50", "setting": "TK-10", "value": "> 100 µM (inactive)"}, {"measurement": "GI50", "setting": "UO-31", "value": "> 100 µM (inactive)"}, {"measurement": "GI50", "setting": "DMS-273", "value": "> 100 µM (inactive)"}, {"measurement": "GI50", "setting": "HOP-62", "value": "> 100 µM (inactive)"}, {"measurement": "GI50", "setting": "SF-295", "value": "> 100 µM (inactive)"}, {"measurement": "GI50", "setting": "M19-MEL", "value": "> 100 µM (inactive)"}, {"measurement": "GI50", "setting": "HOP-92", "value": "> 100 µM (inactive)"}, {"measurement": "GI50", "setting": "NCI-H522", "value": "> 100 µM (inactive)"}, {"measurement": "GI50", "setting": "SK-MEL-28", "value": "> 100 µM (inactive)"}, {"measurement": "GI50", "setting": "OVCAR-5", "value": "> 100 µM (inactive)"}, {"measurement": "GI50", "setting": "NCI-H23", "value": "> 100 µM (inactive)"}, {"measurement": "GI50", "setting": "SK-MEL-2", "value": "> 100 µM (inactive)"}, {"measurement": "GI50", "setting": "RXF 393", "value": "> 100 µM (inactive)"}, {"measurement": "GI50", "setting": "HOP-18", "value": "50.7 µM (inactive)"}, {"measurement": "GI50", "setting": "HCC 2998", "value": "> 100 µM (inactive)"}, {"measurement": "GI50", "setting": "A549", "value": "> 100 µM (inactive)"}, {"measurement": "GI50", "setting": "SNB-19", "value": "> 100 µM (inactive)"}, {"measurement": "GI50", "setting": "HCT-15", "value": "> 100", "unit": "µM"}, {"measurement": "GI50", "setting": "MOLT-4", "value": "94.6 µM (inactive)"}, {"measurement": "GI50", "setting": "OVCAR-3", "value": "> 100 µM (inactive)"}, {"measurement": "GI50", "setting": "IGROV-1", "value": "> 100 µM (inactive)"}, {"measurement": "GI50", "setting": "LOX IMVI", "value": "> 100 µM (inactive)"}, {"measurement": "GI50", "setting": "RPMI-8226", "value": "> 100 µM (inactive)"}, {"measurement": "GI50", "setting": "OVCAR-4", "value": "> 100 µM (inactive)"}, {"measurement": "GI50", "setting": "UACC-257", "value": "> 100 µM (inactive)"}, {"measurement": "GI50", "setting": "DMS-114", "value": "> 100 µM (inactive)"}, {"measurement": "GI50", "setting": "LXFL 529", "value": "> 100 µM (inactive)"}, {"measurement": "GI50", "setting": "HCT-116", "value": "> 100 µM (inactive)"}, {"measurement": "GI50", "setting": "SNB-78", "value": "> 100 µM (inactive)"}, {"measurement": "GI50", "setting": "Malme-3M", "value": "> 100 µM (inactive)"}, {"measurement": "GI50", "setting": "SF-539", "value": "> 100 µM (inactive)"}, {"measurement": "GI50", "setting": "KM-20L2", "value": "> 100 µM (inactive)"}, {"measurement": "GI50", "setting": "SK-OV-3", "value": "> 100 µM (inactive)"}, {"measurement": "GI50", "setting": "SNB-75", "value": "> 100 µM (inactive)"}, {"measurement": "GI50", "setting": "CAKI-1", "value": "> 100 µM (inactive)"}, {"measurement": "GI50", "setting": "CCRF-CEM", "value": "> 100 µM (inactive)"}, {"measurement": "GI50", "setting": "SR", "value": "33.3 µM (inactive)"}, {"measurement": "GI50", "setting": "HT-29", "value": "> 100 µM (inactive)"}, {"measurement": "GI50", "setting": "COLO 205", "value": "> 100 µM (inactive)"}, {"measurement": "GI50", "setting": "EKVX", "value": "> 100 µM (inactive)"}, {"measurement": "GI50", "setting": "ACHN", "value": "> 100 µM (inactive)"}, {"measurement": "GI50", "setting": "NCI-H460", "value": "> 100 µM (inactive)"}, {"measurement": "GI50", "setting": "RXF 631", "value": "> 100 µM (inactive)"}, {"measurement": "GI50", "setting": "SK-MEL-5", "value": "> 100 µM (inactive)"}]}
